Assay results reported in PubChem BioAssay AID1918938 (Molecular Pharmacology Branch, DTP, NCI, 2023).

Test system: 556581-035-R-J1-PDC complex spheroid viability
Experiment: Anticancer human tumor 556581-035-R-J1-PDC patient-derived ovarian carcinoma cell line growth inhibition
Settings: for IC50: curve of first compound; for viability, T/C: stronger effect = lower value
Method in brief: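 Complex spheroids of tumor cells with HUVEC and human MSCs, exposed to iadademstat combined with other agents. Each agent tested in half-log steps from near clinical Cmax (else 10 microM top), DMSO ≤0.25%.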

[1] = second compound 0.1 µM, first compound 0.00949 µM
[2] = second compound 0.1 µM, first compound 0.03 µM
[3] = second compound 0.1 µM, first compound 0.0949 µM
[4] = second compound 0.1 µM, first compound 0.3 µM
[5] = second compound 0.316 µM, first compound 0.00949 µM
[6] = second compound 0.316 µM, first compound 0.03 µM
[7] = second compound 0.316 µM, first compound 0.0949 µM
[8] = second compound 0.316 µM, first compound 0.3 µM
[9] = second compound 1 µM, first compound 0.00949 µM
[10] = second compound 1 µM, first compound 0.03 µM
[11] = second compound 1 µM, first compound 0.0949 µM
[12] = second compound 1 µM, first compound 0.3 µM
[13] = second compound 3.16 µM, first compound 0.00949 µM
[14] = second compound 3.16 µM, first compound 0.03 µM
[15] = second compound 3.16 µM, first compound 0.0949 µM
[16] = second compound 3.16 µM, first compound 0.3 µM
[17] = second compound 10 µM, first compound 0.00949 µM
[18] = second compound 10 µM, first compound 0.03 µM
[19] = second compound 10 µM, first compound 0.0949 µM
[20] = second compound 10 µM, first compound 0.3 µM
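Further: spheroids exposed to agents for seven days.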
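Wherever viability, T/C is given: 100% = DMSO vehicle control wells.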

For `CCN(c1cc(-c2ccc(CN3CCOCC3)cc2)cc(C(=O)NCc2c(C)cc(C)[nH]c2=O)c1C)C1CCOCC1` + NC1CCC(NC2CC2c2ccccc2)CC1, the IC50 (second compound 0.1 µM) was 1690 nM, the IC50 (second compound 0.316 µM) was > 3000 nM and the IC50 (second compound 1 µM) was 2270 nM. The IC50 (second compound 3.16 µM) was > 3000 nM, the IC50 (second compound 10 µM) was 1620 nM and the viability, T/C [1] was 89.1%. For the same molecule, the viability, T/C [2] was 97%, the viability, T/C [3] was 100% and the viability, T/C [4] was 81.3%. For the same molecule, the viability, T/C (second compound 0.1 µM, first compound 0.949 µM) was 59.1%, the viability, T/C (second compound 0.1 µM, first compound 3 µM) was 41.7% and the viability, T/C [5] was 84.5%. For the same molecule, the viability, T/C [6] was 91.7%, the viability, T/C [7] was 93.9% and the viability, T/C [8] was 85.6%. For the same molecule, the viability, T/C (second compound 0.316 µM, first compound 0.949 µM) was 55%, the viability, T/C (second compound 0.316 µM, first compound 3 µM) was 50.6% and the viability, T/C [9] was 90.7%. For the same molecule, the viability, T/C [10] was 93%, the viability, T/C [11] was 88.5% and the viability, T/C [12] was 77.3%. The viability, T/C (second compound 1 µM, first compound 0.949 µM) was 57.1%, the viability, T/C (second compound 1 µM, first compound 3 µM) was 47.7% and the viability, T/C [13] was 91.1%. The viability, T/C [14] was 100%, the viability, T/C [15] was 76.1% and the viability, T/C [16] was 69.8%. The viability, T/C (second compound 3.16 µM, first compound 0.949 µM) was 60.1%, the viability, T/C (second compound 3.16 µM, first compound 3 µM) was 49.5% and the viability, T/C [17] was 82.8%. For the same molecule, the viability, T/C [18] was 88.3%, the viability, T/C [19] was 76.5% and the viability, T/C [20] was 70.6%. The viability, T/C (second compound 10 µM, first compound 0.949 µM) was 54% and the viability, T/C (second compound 10 µM, first compound 3 µM) was 44.9%.

Work on `Nc1ncn(C2CC(O)C(CO)S2)c(=O)n1` (stereo not given) + NC1CCC(NC2CC2c2ccccc2)CC1 yielded an IC50 (second compound 0.1 µM) of 88.3 nM, an IC50 (second compound 0.316 µM) of 98.8 nM and an IC50 (second compound 1 µM) of 91.2 nM. For the same molecule, the IC50 (second compound 3.16 µM) was 85.2 nM, the IC50 (second compound 10 µM) was 76.4 nM and the viability, T/C (second compound 0.1 µM, first compound 0.000949 µM) was 102%. The viability, T/C (second compound 0.1 µM, first compound 0.003 µM) was 93%, the viability, T/C [1] was 99.5% and the viability, T/C [2] was 69.4%. The viability, T/C [3] was 52.4%, the viability, T/C [4] was 41.5% and the viability, T/C (second compound 0.316 µM, first compound 0.000949 µM) was 91.5%. The viability, T/C (second compound 0.316 µM, first compound 0.003 µM) was 94.8%, the viability, T/C [5] was 83.7% and the viability, T/C [6] was 73%. For the same molecule, the viability, T/C [7] was 49.9%, the viability, T/C [8] was 36.6% and the viability, T/C (second compound 1 µM, first compound 0.000949 µM) was 91.2%. For the same molecule, the viability, T/C (second compound 1 µM, first compound 0.003 µM) was 93.3%, the viability, T/C [9] was 79.6% and the viability, T/C [10] was 67%. The viability, T/C [11] was 49.5%, the viability, T/C [12] was 39% and the viability, T/C (second compound 3.16 µM, first compound 0.000949 µM) was 96%. The viability, T/C (second compound 3.16 µM, first compound 0.003 µM) was 90%, the viability, T/C [13] was 94.6% and the viability, T/C [14] was 67.8%. The viability, T/C [15] was 51.1%, the viability, T/C [16] was 43.8% and the viability, T/C (second compound 10 µM, first compound 0.000949 µM) was 88.5%. It also gave a viability, T/C (second compound 10 µM, first compound 0.003 µM) of 83.2%, a viability, T/C [17] of 71.9% and a viability, T/C [18] of 61.1%. It also gave a viability, T/C [19] of 46% and a viability, T/C [20] of 42.1%.

Work on `O=C(C=Cn1cnc(-c2cc(C(F)(F)F)cc(C(F)(F)F)c2)n1)NNc1cnccn1` + NC1CCC(NC2CC2c2ccccc2)CC1 yielded an IC50 (second compound 0.1 µM) of 214 nM, an IC50 (second compound 0.316 µM) of 138 nM and an IC50 (second compound 1 µM) of 289 nM. The IC50 (second compound 3.16 µM) was 254 nM, the IC50 (second compound 10 µM) was 340 nM and the viability, T/C (second compound 0.1 µM, first compound 0.00316 µM) was 75.4%. The viability, T/C (second compound 0.1 µM, first compound 0.01 µM) was 78.2%, the viability, T/C (second compound 0.1 µM, first compound 0.0316 µM) was 78.6% and the viability, T/C (second compound 0.1 µM, first compound 0.1 µM) was 59.9%. It also gave a viability, T/C (second compound 0.1 µM, first compound 0.316 µM) of 44.8%, a viability, T/C (second compound 0.1 µM, first compound 1 µM) of 24.6% and a viability, T/C (second compound 0.316 µM, first compound 0.00316 µM) of 81.8%. It also gave a viability, T/C (second compound 0.316 µM, first compound 0.01 µM) of 86.2%, a viability, T/C (second compound 0.316 µM, first compound 0.0316 µM) of 78.8% and a viability, T/C (second compound 0.316 µM, first compound 0.1 µM) of 49%. It also gave a viability, T/C (second compound 0.316 µM, first compound 0.316 µM) of 44.1%, a viability, T/C (second compound 0.316 µM, first compound 1 µM) of 25.2% and a viability, T/C (second compound 1 µM, first compound 0.00316 µM) of 76%. The viability, T/C (second compound 1 µM, first compound 0.01 µM) was 74.7%, the viability, T/C (second compound 1 µM, first compound 0.0316 µM) was 77% and the viability, T/C (second compound 1 µM, first compound 0.1 µM) was 68.2%. For the same molecule, the viability, T/C (second compound 1 µM, first compound 0.316 µM) was 48.6%, the viability, T/C (second compound 1 µM, first compound 1 µM) was 20.1% and the viability, T/C (second compound 3.16 µM, first compound 0.00316 µM) was 75.8%. It also gave a viability, T/C (second compound 3.16 µM, first compound 0.01 µM) of 86.9%, a viability, T/C (second compound 3.16 µM, first compound 0.0316 µM) of 75.5% and a viability, T/C (second compound 3.16 µM, first compound 0.1 µM) of 67.2%. For the same molecule, the viability, T/C (second compound 3.16 µM, first compound 0.316 µM) was 46.2%, the viability, T/C (second compound 3.16 µM, first compound 1 µM) was 25.3% and the viability, T/C (second compound 10 µM, first compound 0.00316 µM) was 67.2%. For the same molecule, the viability, T/C (second compound 10 µM, first compound 0.01 µM) was 71.7%, the viability, T/C (second compound 10 µM, first compound 0.0316 µM) was 66.6% and the viability, T/C (second compound 10 µM, first compound 0.1 µM) was 61.8%. For the same molecule, the viability, T/C (second compound 10 µM, first compound 0.316 µM) was 53.5% and the viability, T/C (second compound 10 µM, first compound 1 µM) was 17.3%.
